# According to US8716292B2, “Riminophenazines with 2-(heteroaryl)amino substituents and their anti-microbial activity” (priority 2010, dated 2014):
# System: Mycobacterium tuberculosis H37Rv strains
# Assay: In vitro assay for antimicrobial susceptibility (microplate Alamar blue MIC)
# Format: cell-based
# Details: Mycobacterium tuberculosis, H37RV, 7H9, Alamar blue, inhibition ≧90%; read-out: MIC (μg/mL) against H37Rv
row,SMILES,MIC [µg/mL]
1,"CC(C)/N=c1\cc2n(-c3ccc(F)c(F)c3)c3ccccc3nc-2cc1Nc1ccccn1 [TBI-1436, 5-(3,4-Difluorophenyl)-3-(1-methylethyl)imino-2-(2-pyridyl)amino-3,5-dihydrophenazine]",0.028
2,"Fc1ccc(-n2c3c/c(=N\C4CCOCC4)c(Nc4ncccn4)cc-3nc3ccccc32)cc1 [TBI-1084, 5-(4-Fluorophenyl)-3-(4-tetrahydropyranyl)imino-2-(pyrimidin-2-yl)amino-3,5-dihydrophenazine]",0.043
3,"COC1CCC(/N=c2\cc3n(-c4ccc(F)c(F)c4)c4ccccc4nc-3cc2Nc2cnccn2)CC1 (centres unmarked) [TBI-1445, 5-(3,4-Difluorophenyl)-3-(4-methoxycyclohexyl)imino-2-(pyrazin-2-yl)amino-3,5-dihydrophenazine]",0.056
4,"CC(C)/N=c1\cc2n(-c3ccc(OC(F)(F)F)cc3)c3ccccc3nc-2cc1Nc1ccccn1 [TBI-952, 5-(4-Trifluoromethoxyphenyl)-3-(1-methylethyl)imino-2-(2-pyridyl)amino-3,5-dihydrophenazine]",0.093
5,"Fc1ccc(-n2c3c/c(=N\C4CCOCC4)c(Nc4ccccn4)cc-3nc3ccccc32)cc1 [TBI-1087, 5-(4-Fluorophenyl)-3-(4-tetrahydropyranyl)imino-2-(2-pyridyl)amino-3,5-dihydrophenazine]",0.028

# Same assay, conditions: Mycobacterium tuberculosis, H37RV, in vitro, Mycobacterium tuberculosis H37Rv strains; read-out: MIC (μg/mL) against H37Rv
row,SMILES,MIC [µg/mL]
1,"Cc1ccc(Nc2cc3nc4ccccc4n(-c4ccc(Cl)c(Cl)c4)c-3c/c2=N\C2CC2)cn1 [TBI-944, 5-(3,4-Dichlorophenyl)-3-cyclopropylimino-2-(6-methyl-3-pyridyl)amino-3,5-dihydrophenazine]",0.06
2,"Cc1ccc(Nc2cc3nc4ccccc4n(-c4ccc(F)cc4)c-3c/c2=N\C(C)C)cn1 [TBI-692, 5-(4-Fluorophenyl)-3-(1-methylethyl)imino-2-(6-methyl-3-pyridyl)amino-3,5-dihydrophenazine]",0.06
3,"COc1ncccc1Nc1cc2nc3ccccc3n(-c3ccc(Cl)cc3)c-2c/c1=N\C(C)C [TBI-438, 5-(4-Chlorophenyl)-3-(1-methylethyl)imino-2-(2-methoxy-3-pyridyl)amino-3,5-dihydrophenazine]",0.03
4,"CC(C)/N=c1\cc2n(-c3cccc([S+](C)[O-])c3)c3ccccc3nc-2cc1Nc1cccnc1 (centres unmarked) [TBI-455, 5-(3-Methylsulfinylphenyl)-3-(1-methylethyl)imino-2-(3-pyridyl)amino-3,5-dihydrophenazine]",0.5
5,"Cc1ncccc1Nc1cc2nc3ccccc3n(-c3cccc(OC(F)(F)F)c3)c-2c/c1=N\C(C)C [TBI-1032, 5-(3-Trifluoromethoxyphenyl)-3-(1-methylethyl)imino-2-(2-methyl-3-pyridyl)amino-3,5-dihydrophenazine]",0.107
6,"Cc1ccc(Nc2cc3nc4ccc(F)cc4n(-c4ccc(OC(F)(F)F)cc4)c-3c/c2=N\C2CCCCC2)cn1 [TBI-853, 7-Fluoro-5-(4-trifluoromethoxyphenyl)-3-cyclohexylimino-2-(6-methyl-3-pyridyl)amino-3,5-dihydrophenazine]",0.025
7,Cc1ccc(Nc2cc3nc4ccccc4n(-c4ccccc4)c-3c/c2=N\C2CCC(O)CC2)cn1 (centres unmarked) [TBI-086],0.5
8,"CC(C)CN1CCC(/N=c2\cc3n(-c4ccc(F)cc4)c4ccccc4nc-3cc2Nc2cccnc2)CC1 [TBI-683, 5-(4-Fluorophenyl)-3-(N-isobutyl-4-piperidyl)imino-2-(3-pyridyl)amino-3,5-dihydrophenazine]",0.125
9,"Cc1ccc(-n2c3c/c(=N\C4CCOCC4)c(Nc4cncc(C)c4)cc-3nc3ccccc32)cc1 [TBI-328, 5-(4-Methylphenyl)-3-(4-tetrahydropyranyl)imino-2-(5-methyl-3-pyridyl)amino-3,5-dihydrophenazine]",0.037
10,Cc1ccc(Nc2cc3nc4ccccc4n(-c4ccc(F)cc4)c-3c/c2=N\C2CCC2)cn1 [TBI-1017],0.056
11,"COc1ncccc1Nc1cc2nc3ccccc3n(-c3ccc(F)cc3)c-2c/c1=N\C1CCC1 [TBI-1016, 5-(4-Fluorophenyl)-3-cyclobutylimino-2-(2-methoxy-3-pyridyl)amino-3,5-dihydrophenazine]",0.037
12,"COc1ncccc1Nc1cc2nc3ccc(F)cc3n(-c3ccc(OC(F)(F)F)cc3)c-2c/c1=N\C(C)C [TBI-858, 7-Fluoro-5-(4-trifluoromethoxyphenyl)-3-(1-methylethyl)imino-2-(2-methoxy-3-pyridyl)amino-3,5-dihydrophenazine]",0.08
13,"Cc1cncc(Nc2cc3nc4ccccc4n(-c4ccccc4)c-3c/c2=N\C2CCOCC2)c1 [TBI-083, 5-Phenyl-3-(4-tetrahydropyranyl)imino-2-(5-methyl-3-pyridyl)amino-3,5-dihydrophenazine]",0.049
14,"COc1ccc(Nc2cc3nc4ccccc4n(-c4ccc(F)cc4)c-3c/c2=N\C2CCCCC2)cn1 [TBI-932, 5-(4-Fluorophenyl)-3-cyclohexylimino-2-(6-methoxy-3-pyridyl)amino-3,5-dihydrophenazine]",0.148
15,"COc1ncccc1Nc1cc2nc3ccccc3n(-c3ccccc3)c-2c/c1=N\C1CCC1 [TBI-505, 5-Phenyl-3-cyclobutylimino-2-(2-methoxy-3-pyridyl)amino-3,5-dihydrophenazine]",0.043
16,"FC(F)(F)c1ccc(-n2c3c/c(=N\C4CCN(C5CCCC5)CC4)c(Nc4cccnc4)cc-3nc3ccccc32)cc1 [TBI-691, 5-(4-Trifluoromethylphenyl)-3-(N-cyclopentyl-4-piperidyl)imino-2-(3-pyridyl)amino-3,5-dihydrophenazine]",0.06

row,SMILES,MIC [µg/mL]
1,"COc1ncccc1Nc1cc2nc3ccccc3n(-c3ccc(Br)cc3)c-2c/c1=N\C1CCC(OC)CC1 (centres unmarked) [TBI-521, 5-(4-Bromophenyl)-3-(4-methoxycyclohexyl)imino-2-(2-methoxy-3-pyridyl)amino-3,5-dihydrophenazine]",0.031
2,"Cc1ncccc1Nc1cc2nc3ccccc3n(-c3ccc(C(F)(F)F)cc3)c-2c/c1=N\C1CCC1 [TBI-734, 5-(4-Trifluoromethylphenyl)-3-cyclobutylimino-2-(2-methyl-3-pyridyl)amino-3,5-dihydrophenazine]",0.014
3,"COC1CCC(/N=c2\cc3n(-c4cccc(OC(F)(F)F)c4)c4ccccc4nc-3cc2Nc2cccnc2)CC1 (centres unmarked) [TBI-1024, 5-(3-Trifluoromethoxyphenyl)-3-(4-methoxycyclohexyl)imino-2-(3-pyridyl)amino-3,5-dihydrophenazine]",0.112
4,"Fc1ccc(-n2c3c/c(=N\C4CC4)c(Nc4cccnc4)cc-3nc3ccccc32)cc1 [TBI-922, 5-(4-Fluorophenyl)-3-cyclopropylimino-2-(3-pyridyl)amino-3,5-dihydrophenazine]",0.012
5,"Cc1ccc(-n2c3c/c(=N\C4CCCCC4)c(Nc4cccnc4)cc-3nc3ccccc32)cc1 [TBI-333, 5-(4-Methylphenyl)-3-cyclohexylimino-2-(3-pyridyl)amino-3,5-dihydrophenazine]",0.061
6,"Cc1ncccc1Nc1cc2nc3ccccc3n(-c3cccc(OC(F)(F)F)c3)c-2c/c1=N\C1CCCCC1 [TBI-1034, 5-(3-Trifluoromethoxyphenyl)-3-cyclohexylimino-2-(2-methyl-3-pyridyl)amino-3,5-dihydrophenazine]",0.059
7,"Cc1ncccc1Nc1cc2nc3ccccc3n(-c3ccc(C(F)(F)F)cc3)c-2c/c1=N\C1CCOCC1 [TBI-707, 5-(4-Trifluoromethylphenyl)-3-(4-tetrahydropyranyl)imino-2-(2-methyl-3-pyridyl)amino-3,5-dihydrophenazine]",0.011
8,"Fc1ccc(-n2c3c/c(=N\C4CCC4)c(Nc4cccnc4)cc-3nc3ccccc32)cc1 [TBI-923, 5-(4-Fluorophenyl)-3-cyclobutylimino-2-(3-pyridyl)amino-3,5-dihydrophenazine]",0.021
9,"COc1ncccc1Nc1cc2nc3ccccc3n(-c3ccc(C)cc3)c-2c/c1=N\C1CCC(OC)CC1 (centres unmarked) [TBI-309, 5-(4-Methylphenyl)-3-(4-methoxycyclohexyl)imino-2-(2-methoxy-3-pyridyl)amino-3,5-dihydrophenazine]",0.06
10,"COc1ncccc1Nc1cc2nc3ccccc3n(-c3ccc(Cl)c(Cl)c3)c-2c/c1=N\C1CCOCC1 [TBI-361, 5-(3,4-Dichlorophenyl)-3-(4-tetrahydropyranyl)imino-2-(2-methoxy-3-pyridyl)amino-3,5-dihydrophenazine]",0.08
11,"Cc1ccc(Nc2cc3nc4ccccc4n(-c4ccccc4)c-3c/c2=N\C2CCC2)cn1 [TBI-506, 5-Phenyl-3-cyclobutylimino-2-(6-methyl-3-pyridyl)amino-3,5-dihydrophenazine]",0.05
12,"COc1ncccc1Nc1cc2nc3ccccc3n(-c3ccccc3OC(F)(F)F)c-2c/c1=N\C1CCC(OC)CC1 (centres unmarked) [TBI-1044, 5-(2-Trifluoromethoxyphenyl)-3-(4-methoxycyclohexyl)imino-2-(2-methoxy-3-pyridyl)amino-3,5-dihydrophenazine]",0.25
13,"COCC(COC)/N=c1\cc2n(-c3ccc(F)c(F)c3)c3ccccc3nc-2cc1Nc1cccnc1 [TBI-528, 5-(3,4-Difluorophenyl)-3-(1,3-dimethoxyisopropyl)imino-2-(3-pyridyl)amino-3,5-dihydrophenazine]",0.216
14,"FC(F)(F)Oc1cccc(-n2c3c/c(=N\C4CC4)c(Nc4cccnc4)cc-3nc3ccccc32)c1 [TBI-1021, 5-(3-Trifluoromethoxyphenyl)-3-cyclopropylimino-2-(3-pyridyl)amino-3,5-dihydrophenazine]",0.054
15,"COC1CCC(/N=c2\cc3n(-c4ccc(C)cc4)c4ccccc4nc-3cc2Nc2cccnc2C)CC1 (centres unmarked) [TBI-322, 5-(4-Methylphenyl)-3-(4-methoxycyclohexyl)imino-2-(2-methyl-3-pyridyl)amino-3,5-dihydrophenazine]",0.092
16,"CC(=O)Nc1ccc(Nc2cc3nc4ccccc4n(-c4ccc(F)cc4)c-3c/c2=N\C2CCCCC2)cn1 [TBI-916, 5-(4-Fluorophenyl)-3-cyclohexylimino-2-(6-acetamino-3-pyridyl)amino-3,5-dihydrophenazine]",0.014

# Same assay, conditions: in vitro, Mycobacterium tuberculosis H37Rv strains
row,SMILES,MIC (μg/mL) against H37Rv [µg/mL]
1,"COc1ncccc1Nc1cc2nc3ccccc3n(-c3ccc(F)c(F)c3)c-2c/c1=N\C1CCOCC1 [TBI-1428, 5-(3,4-Difluorophenyl)-3-(4-tetrahydropyranyl)imino-2-(2-methoxy-3-pyridyl)amino-3,5-dihydrophenazine]",0.054
